# Values quoted from earlier work in PMC11478287, “Design and Synthesis of Pyridyl and 2-Hydroxyphenyl Chalcones with Antitubercular Activity” (Molecules, 2024).
# System: PtpA
# Set-up: method as in PMID 18930396
# Settings: cited from earlier work
smiles,measurement,value
COc1cc(C(=O)/C=C/c2ccc3c(c2)OCO3)cc(OC)c1OC [Compound 2],PtpA inhibition activity (in words),very low PtpA inhibition activity
